Measurements from PubChem BioAssay (NCI).
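Test compounds were applied to cells in 96-well plates for 48 hours at 5 doses. Definition used: TGI = concentration required for complete inhibition of growth.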

How the values were obtained:
Test in all cases: NCI-60 cell line screen, 48 h
[1] = test system: LXFL 529 NSCLC
[2] = test system: SF-295 CNS
[3] = test system: IGROV1 ovarian
[4] = test system: RPMI-8226 leukemia
[5] = test system: TK-10 renal
[6] = test system: SNB-75 CNS
[7] = test system: HCT-15 colon
[8] = test system: HCT-116 colon
[9] = test system: HL-60(TB) leukemia
[10] = test system: 786-0 renal
[11] = test system: UACC-62 melanoma
[12] = test system: SW-620 colon
[13] = test system: HT29 colon
[14] = test system: HOP-92 NSCLC
[15] = test system: OVCAR-8 ovarian
[16] = test system: NCI-H460 lung
[17] = test system: OVCAR-3 ovarian
[18] = test system: COLO 205 colon
[19] = test system: SF-539 CNS
[20] = test system: DMS 273 small cell lung
[21] = test system: CCRF-CEM leukemia
[22] = test system: SNB-19 CNS
[23] = test system: NCI-H522 lung
[24] = test system: LOX IMVI melanoma
[25] = test system: M19-MEL melanoma
[26] = test system: ACHN renal
[27] = test system: U251 CNS
[28] = test system: MOLT-4 leukemia
[29] = test system: OVCAR-4 ovarian
[30] = test system: SK-MEL-28 melanoma
[31] = test system: EKVX NSCLC
[32] = test system: A498 renal
[33] = test system: SK-MEL-5 melanoma
[34] = test system: A549 NSCLC
[35] = test system: RXF 393 renal
[36] = test system: SR leukemia
[37] = test system: HOP-62 NSCLC
[38] = test system: KM20L2 colon
[39] = test system: CAKI-1 renal
[40] = test system: NCI-H226 lung
[41] = test system: NCI-H23 lung
[42] = test system: UO-31 renal
[43] = test system: HCC-2998 colon
[44] = test system: SNB-78 CNS
[45] = test system: KM12 colon
[46] = test system: SF-268 CNS
[47] = test system: DMS 114 small cell lung
[48] = test system: K-562 leukemia
[49] = test system: SN12C renal
[50] = test system: SK-OV-3 ovarian
[51] = test system: UACC-257 melanoma
[52] = test system: SK-MEL-2 melanoma
[53] = test system: M14 melanoma
[54] = test system: MALME-3M melanoma
[55] = test system: OVCAR-5 ovarian

Measured: TGI

CC1(SCC(N)C(=O)O)CC(=O)NC1=O (configuration not stated)
> 100 µM: [1] | [2] | [3] | [4] | [5] | [6] | [7] | [8] | [9] | [10] | [11] | [12] | [13] | [14] | [15] | [16] | [17] | [18] | [19] | [20] | [21] | [22] | [23] | [24] | [25] | [26] | [27] | [28] | [29] | [30] | [31] | [32] | [33] | [34] | [35] | [36] | [37] | [38] | [39] | [40] | [41] | [42] | [43] | [44] | [45] | [46] | [47] | [48] | [49] | [50] | [51] | [52]

c1ccc(C2=NOC3COc4ccccc4OCC23)cc1 (configuration not stated)
> 100 µM: [1] | [2] | [4] | [5] | [6] | [7] | [8] | [9] | [10] | [11] | [12] | [13] | [15] | [16] | [17] | [18] | [19] | [20] | [21] | [22] | [23] | [24] | [26] | [27] | [28] | [29] | [30] | [31] | [32] | [33] | [34] | [35] | [36] | [37] | [38] | [39] | [41] | [42] | [53] | [43] | [44] | [45] | [46] | [47] | [48] | [54] | [49] | [50] | [51] | [52]

CCOC(=O)c1cnc2oc(-c3ccc(OC)cc3)nn2c1=O
> 100 µM: [1] | [2] | [3] | [4] | [5] | [6] | [7] | [8] | [10] | [11] | [12] | [13] | [14] | [15] | [17] | [18] | [19] | [20] | [22] | [23] | [25] | [27] | [28] | [29] | [55] | [30] | [31] | [33] | [34] | [35] | [38] | [40] | [41] | [42] | [43] | [44] | [45] | [46] | [47] | [48] | [54] | [49] | [50] | [51] | [52]
